The subject of data set [1] is HL60 cells and K562 cells. The experiment in a line: Leukemia cell growth comparison, cell count by trypan blue. The class given is cell-based. The following applies: 6.2 μM, 48 hours; for number of cells in leukemia cell lines: HL60 and K562. On the procedure: An acute myeloid leukemia cell line HL60, and a chronic myeloid leukemia cell line, K562 cells were treated with 6.2 μM of cholesterol, 7α-hydroxycholesterol, and 27-hydroxycholesterol for 48 hours and then strained with trypan blue, and then the cell count was confirmed.

The subject of data set [2] is hematopoietic stem cells. The experiment in a line: Bone marrow transplantation of ex vivo treated donor CD45.1 bone marrow cells. The class given is in vivo, mouse. On the procedure: Bone marrow cells were taken out ex vivo, treated with 6.2 μM of 27-hydroxycholesterol (27-HC), and then subjected to bone marrow transplantation.
Specifically, referring to FIG. 9A, BM cells were extracted from the tibia and femur of a donor CD45.1 mouse, and then treated with vehicle, 6.2 μM cholesterol, and 6.2 μM 27-hydroxycholesterol for 48 hours. Then, bone marrow transplantation was performed by mixing the bone marrow cells of the CD45.2 mouse in a 1:1 ratio and injecting the mixture into the caudal vein of a recipient CD45.2 mouse that had been irradiated with 4 Gy. One month later, blood was extracted from the veins of the recipient mouse that had received bone marrow transplantation, and the cell proportion of the donor mouse was analyzed. Blood was extracted from the mouse jugular vein and added in 10 mM EDTA to prevent blood coagulation, and added in an ACK lysis buffer to lyse red blood cells. It was confirmed that after attaching CD45.1-APC and CD45.2-FITC antibodies, donor mouse CD45.1 cells were analyzed using FACSCanto2 equipment, and 27-hydroxycholesterol suppressed the regeneration and proliferation of hematopoietic stem cells, as illustrated FIGS. 9A to 9E.

Data set [3] has as its system ER stress response pathway. Put plainly: Western blot of ER stress proteins (pIRE1α, IRE1α, PERK, ATF4, elF2α). The class given is cell-based.
Data set [4] deals with myeloid leukemia cells (HL60, KG1a, K562 cells). Put plainly: ROS (DCFDA staining) in leukemia cell lines. Conditions: compared to control cells. The class given is cell-based. The protocol: (§1) Next, the apoptosis and the ROS proportions were analyzed through DCFDA staining. In addition, to confirm the effect of 27-Hydroxycholesterol on the differentiation of leukemia cell lines, a differentiation marker, CD11b was stained and analyzed using FACScanto 2 equipment. As a result, it was confirmed that the ROS proportion was high in the leukemia cell line treated with 27-hydroxycholesterol, which was illustrated in FIG. 4 [Con: untreated leukemia cell line, Chol: leukemia cell line treated with cholesterol, 27HC: leukemia cell line treated with 27-hydroxycholesterol].

For data set [5], the system named is hematopoietic stem and progenitor cells (HSPC). The experiment in a line: Apoptosis (Annexin V / 7AAD, FACS) in mouse bone marrow cells. The class given is cell-based. The following applies: 6.2 μM, 48 hours, compared to control cells. On the procedure:
(§2) Bone marrow cells were extracted from the mouse tibia and femur and treated with 6.2 μM of 27-hydroxycholesterol for 48 hours. In order to confirm apoptosis, the cells treated with 27-hydroxycholesterol were collected, the cells were dissolved in a 1× Annexin binding buffer, added with Annexin V and 7AAD, and analyzed using FACScanto2 equipment, and in order to confirm reactive oxygen species, the cells were dissolved in an FACS staining buffer, added with DCFDA, stained at 37° C. for 30 minutes, and analyzed using FACScanto2 equipment. As a result, an effect of 27-hydroxycholesterol on increased apoptosis and reactive oxygen species (ROS) in hematopoietic stem and progenitor cells (HSPC) was confirmed and illustrated in FIG. 2 [Con or Ctrl: mouse bone marrow cells untreated, Chol: mouse bone marrow cells treated with cholesterol, 27HC: mouse bone marrow cells treated with 27-hydroxycholesterol].

For data set [6], the system named is LKS cells and hematopoietic progenitor cells (HPC). The experiment in a line: qRT-PCR gene expression in sorted LKS cells and hematopoietic progenitor cells. The class given is cell-based, mouse. Conditions: 6.2 μM, 48 hours. On the procedure:
Bone marrow cells were extracted from the mouse tibia and femur and treated with 6.2 μM of 27-hydroxycholesterol for 48 hours. After treatment, the cells were added with PE-Cy5-CD3, PE-Cy5-CD4, PE-Cy5-CD8, PE-Cy5-CD19, PE-Cy5-B220, PE-Cy5-GR1, PE-Cy5-Ter119, PE-Sca1, APC-Add cKit, PE-Cy7-CD150, and APC-Cy7-CD48 antibodies, stained for 30 minutes at 4° C., and then LKS (Lin-Sca1^+cKit^+) and hematopoietic progenitor cells (Lin^−Sca1^+cKit^+CD48^+) were separated using FACSAria. Thereafter, RNA was extracted from the cells using an RNA extraction kit, and cDNA was synthesized from RNA using a cDNA synthesis kit. The synthesized cDNA was subjected to qRT-PCR using primers related to apoptosis and ER stress and SYBR-green. As a result, it was confirmed that gene expression related to apoptosis and ER stress was increased according to treatment of 27-hydroxycholesterol in LKS and hematopoietic progenitor cells, which were immature cells, compared to total bone marrow cells, as illustrated in FIG. 6.
A general note: In qPCR the cycle at which signal appears reflects the starting amount.

Data set [7] concerns hematopoietic stem and progenitor cells (HSPC). The class given is cell-based, mouse. On the procedure: The bone marrow was extracted from the mouse tibia and femur using an FACS staining buffer (phosphate-buffered saline, 2% FBS, penicillin/streptomycin), and then bone marrow cells were extracted by lysing red blood cells using an ACK lysis buffer and treated with 0.62 μM or 6.2 μM 27-hydroxycholesterol for 24 or 48 hours. After treatment, antibodies were attached and the cells were analyzed using FACSCanto2 equipment. As a result, the effect of 27-hydroxycholesterol on decreased hematopoietic stem and progenitor cells (HSPC) was confirmed, and illustrated in FIGS. 1 and 11 [Con: untreated mouse bone marrow cells, Chol: mouse bone marrow cells treated with cholesterol, 27HC: mouse bone marrow cells treated with 27-hydroxycholesterol].

Data set [8] relates to myeloid leukemia cells (HL60, KG1a, and K562 cells). Put plainly: Leukemia cell count by trypan blue. The class given is cell-based. The following applies: 6.2 μM, 48 hours; negative control HEK293T cells. On the procedure: (§3) Acute myeloid leukemia cell lines HL60 and KG1 α, and chronic myeloid leukemia cell line, K562 cells were treated with 6.2 μM of 27-hydroxycholesterol for 48 hours and then strained with trypan blue, and then the cell count was confirmed. In addition, the cells were added with Annexin V and 7AAD, and the apoptosis was analyzed using FACScanto2 equipment. As a result, it was confirmed that compared to untreated cells (Con) and a cholesterol-treated leukemia cell line (Chol), 27-hydroxycholesterol increased the apoptosis in a leukemia cell line (27HC) to reduce the number of cells, which was illustrated in FIG. 3 [Con: untreated leukemia cell line, Chol: leukemia cell line treated with cholesterol, 27HC: leukemia cell line treated with 27-hydroxycholesterol].

In data set [9] the test system is hematopoietic stem and progenitor cells (HSPC). Put plainly: Reactive oxygen species (DCFDA staining, FACS) in mouse bone marrow cells. The class given is cell-based. On the procedure: as §2
Data set [10] has as its system myeloid leukemia cells (HL60, KG1a, K562 cells). Put plainly: Apoptosis (Annexin V / 7AAD, FACS) in leukemia cell lines. The class given is cell-based. The following applies: 6.2 μM, 48 hours, compared to control cells. The protocol:
as §3

Data set [11] has the same test system. Put plainly: Differentiation marker CD11b staining in leukemia cell lines. The class given is cell-based. The following applies: compared to control cells. The protocol: as §1

From US20240398833A1, “PHARMACEUTICAL COMPOSITION CONTAINING 27-HYDROXYCHOLESTEROL FOR PREVENTING OR TREATING MYELOID LEUKEMIA” (PUSAN NATIONAL UNIVERSITY INDUSTRY-UNIVERSITY COOPERATION …, priority 2021, published 2024) come the findings set out here.

“Also recorded” adds a separate entry of the source.

On to `CC(C)CCC[C@@H](C)[C@H]1CC[C@H]2[C@@H]3[C@H](O)C=C4C[C@@H](O)CC[C@]4(C)[C@H]3CC[C@]12C` [7α-hydroxycholesterol, reference compound], for which, in [1], the “effect on chronic myeloid leukemia cells” value is on record as “no effect” and the “number of cells in leukemia cell lines” value is recorded as “did not have a significant effect”. In addition, the “effect on acute myeloid leukemia cell lines” value in [1] (relative to 27-hydroxycholesterol) is listed as “weaker effect”.

As to `C[C@@H](CO)CCC[C@@H](C)[C@H]1CC[C@H]2[C@@H]3CC=C4C[C@@H](O)CC[C@]4(C)[C@H]3CC[C@]12C` [27-hydroxycholesterol], the “proportions of donor monocytes, B cells and T cells in blood of recipient mouse” value in data set [2] (6.2 μM, 48 hours ex vivo, after transplantation, FIG. 9C) is listed as “decreased”. In addition, the “engraftment ability (donor CD45.1 cells) in bone marrow cells” value in data set [2] (6.2 μM, 48 hours ex vivo, after transplantation, FIG. 9D) was “decreased”. Moreover, the “proportions of donor LK cells, LKS cells, HPC and HSC in bone marrow cells of recipient mouse” value in data set [2] (6.2 μM, 48 hours ex vivo, after transplantation, FIG. 9E) was “decreased”. The “engraftment ability (donor CD45.1 cells) in blood” value in data set [2] (6.2 μM, 48 hours ex vivo, one month after transplantation, FIG. 9B) was “decreased”. For the same molecule, in data set [2] (donor BM cells treated ex vivo with 6.2 μM for 48 hours, then transplanted), the “regeneration and proliferation of hematopoietic stem cells” value is “suppressed”. In [3] (HL60 cells, 48 hours), the “ER stress (amount of ER stress protein)” value was “increased”. Further, in data set [3] (THP1 cells, FIG. 5A), the “ER stress response pathway” value was “increases”. Further, the “ROS proportion of myeloid leukemia cells” value in data set [4] is “increased and high”. Moreover, in data set [5], the “apoptosis in LKS cells, HPC and HSC” value is recorded as “increased”. Also, the “gene expression related to apoptosis and ER stress” value in data set [6] (LKS and HPC compared to total bone marrow cells) was “increased”. For the same molecule, in [6] (LKS cells and HPC), the “expression of Bax gene related to apoptosis” value is listed as “increased”; the “expression of Chop, Ire1α and Xbp1s genes related to ER stress” value is reported as “increased”; the “expression of Era gene related to cancer cell growth” value is recorded as “increased”. Further, the “cytotoxic effect (conclusion of Example 1)” value in data set [7] was “cytotoxic effect specifically on hematopoietic stem and progenitor cells”. In addition, in data set [7] (0.62 μM, 24 hours, FIG. 11B), the “effect on LK, LKS, HPC, HSC, monocytes, neutrophils, B cells, T cells” value was “no effect on all cells”. Also, the “number of LK cells, LKS cells, HPC and HSC” value in [7] (BM cells treated for 24 hours or 48 hours, FIG. 11A) is given as “decreased”. Besides, the “proportions of LKS cells, hematopoietic progenitor cells and hematopoietic stem cells” value in [7] (BM cells treated with 27-hydroxycholesterol, FIG. 1A/1B) was “decreased”. Besides, the “proportions of common myeloid, granulocytic macrophage, megakaryocytic erythroid and common lymphocytic progenitor cells” value in [7] (BM cells, FIG. 1C/1D) is reported as “decreased”. The “proportions of monocytes, neutrophils, B cells and T cells” value in data set [7] (BM cells, FIG. 1E/1F) is reported as “no change”. Moreover, the “proportions of LKS cells, HPC and HSC” value in data set [7] (Example 2, 6.2 μM, 48 hours, compared to control cells, FIG. 2F) is on record as “decreased”. Further, in [7] (FIG. 11C), the “cKit+ cells and CD48+ cells” value was “reduces”. Besides, the “number of myeloid leukemia cells (cell count)” value in [8] is given as “reduce; also recorded: significantly decreased”. Further, in [9] (6.2 μM, 48 hours, compared to control cells), the “ROS in LKS cells, HPC and HSC” value is given as “increased”. Further, in [10], the “apoptosis of myeloid leukemia cells” value is on record as “increased”. Besides, the “growth of leukemia cells (HL60 cells and K562 cells)” value in data set [1] (FIG. 8A/8B) is “inhibited; also recorded: minimal; also recorded: suppressed”. Further, the “number of cells in leukemia cell lines” value in [1] is listed as “decreased”. Moreover, in [11], the “differentiation (CD11b+) of myeloid leukemia cells” value is “increased”.

With `CC(=O)N[C@@H](CS)C(=O)O` [N-acetylcysteine, reference compound], the “decreased proportions of LKS cells, HPC and HSC by 27-hydroxycholesterol, on treating NAC” value in data set [7] (27-hydroxycholesterol plus antioxidant NAC, FIG. 2F) is recorded as “suppressed”. Also, the “ROS in LKS cells, HPC and HSC treated with 27-hydroxycholesterol, on treating NAC” value in data set [9] (27-hydroxycholesterol plus antioxidant NAC, FIG. 2E) is recorded as “increased”.
